Measurements reported in EP1287826A1, “A crystalline form of the free base of Amlodipine” (Pfizer Limited, priority 2001, dated 2003).

Type: physicochemical
Experimental: The stability of crystalline amlodipine free base bulk and amlodipine free base tablets was assessed by storing samples for up to 6 or 12 weeks at 25°C/60%RH, 40°C/75%RH and 50°C/20%RH. Changes were monitored using a stability-indicating HPLC method. Results were calculated by normalised peak area (npa). Degradants were identified by comparison of their relative retention times against impurity standards.

For `CCOC(=O)C1=C(COCCN)NC(C)=C(C(=O)OC)C1c1ccccc1Cl` (stereo not shown) [crystalline amlodipine free base, 2-[(2-aminoethoxy)]-methyl-4-(2-chlorophenyl)-3-ethoxycarbonyl-5-methoxycarbonyl-6-methyl-1,4-dihydropyridine], the stability was “stability was demonstrated”.
